“Also recorded” adds a separate entry of the source.
Columns and labels:
NHE1 [1] = test system: NHE1; parameters: method as in PMID 21544803; conditions: cited from earlier work
LNCaP = test system: LNCaP; parameters: method as in PMID 9044824; conditions: LNCaP xenografted SCID mice, high doses; cited from earlier work
DU 145 = test system: DU 145; parameters: method as in PMID 9044824; conditions: DU 145 xenografted SCID mice, high doses; cited from earlier work
DU 145 cells [2] = experiment: Cell migration, wound-healing assay; type: cell-based, human
Experimental: Figure 4 Effects of NHE1-KO or NHE1 inhibition on cell migration examined in wild-type (WT) and NHE1-knockout (KO) DU 145 cells. The rate of closure of the induced gap was evaluated using the wound-healing assay, as described in the Section 4. (A) Examples of the effects of NHE1-KO on wound closure. Upper panel: example of WT DU 145 cells with gaps at 0 and 24 h. Middle panel: example of DU 145 NHE1 KO cells at 0 and 24 h. Lower panel: example of RI cell growth. (B) Summary of results; * indicates significant differences from the same group at 0 h, p < 0.05, n ≥ 6. (C,D) Effects of different concentrations of various NHE1/uPA inhibitors on migration (gap closure) of DU 145 cells. CT: control; EMD: EM87580; other compounds are as names. (C) Summary of the effects of 2 µM of various compounds on the migration of wild-type DU 145 cells. (D) Summary of the effects of 10 µM of various compounds on the migration of wild-type DU 145 cells (BB2-30F was used at 30 µM); * indicates significant differences from untreated control cells at p < 0.05.
Cell migration was studied using a wound-healing assay similar to that described in [13]. Briefly, cells were seeded in 12-well plates ([…]) the day before assay, and then grown to a confluent monolayer. A “scratch” was created in the cell monolayer with a p20 pipette tip in a straight line. The cells were washed twice with PBS to remove the debris, and the medium was changed to 2 mL of growth medium. To obtain the same field during image acquisition, three crosses were marked on the outside of each well as a reference. The scratch gaps above and below the crosses were measured. We acquired six images of the scratch for each well using a Leica DM IRB microscope (at 10× magnification). Arbitrary measurements of gap closure were quantified using Image-Pro Plus software. A minimum of six images/well and five measurements/image were acquired for each treatment; all treatments were repeated at least three times. Data shown are representative of the decrease in gap distance at 24 h, compared to the initial measurement at 0 h. […]

DU 145 cells [3] = experiment: Anchorage-dependent colony formation; type: cell-based, human; conditions: 10 µM, 8 days
Experimental: To examine anchorage-dependent colony formation, we used 60 mm polystyrene dishes that had been coated to introduce hydrophilic groups producing a standard growth surface (Sarstedt, Numbrecht, Germany). To measure anchorage-dependent colony growth, the cells were plated into in the 60 mm dishes at a density of 1000 cells per dish. They were grown in complete growth media. To examine the effects of various compounds, 2–30 µM of the indicated drugs were added to culture dishes. An equal volume of DMSO (vehicle) alone was added to otherwise-untreated controls. After growth for 8 days, colonies were fixed in ice-cold methanol; they were stained with 0.5% crystal violet in methanol and washed, and then left to air-dry. The colonies of > 50 cells/colony were imaged and counted. The number of […] colonies was normalized to the number of control colonies and presented as a percentage of control colonies formed.

NHE1 [4] = target: T1, NHE1 (Homo sapiens, UniProt P19634); experiment: Na+/H+ exchanger activity, recovery from acute acid load (BCECF); type: cell-based; conditions: 10 µM
T1 construct: the activity of the NHE1 protein in DU 145 cells; host or cells: DU 145 human prostate cancer cells
Description: In the next series of experiments, we used NHE1 activity assays to examine the activity of wild-type DU 145 cells and the knockout cell line. […] For the wild type, it illustrates the initial pH, alkalinization caused by ammonium chloride, and the recovery from acidification caused by the removal of ammonium chloride. The recovery upon reintroduction of NaCl is illustrated for both wild-type and knockout cells (Figure 2A,B), and a summary of six experiments is shown in Figure 2E. For wild-type cells, the recovery was robust, at a rate of over 0.008 pH units/s. […] This may be due to either leakage out of the cell, or to the action of other proton transporters present in cells. […]
Figure 2 Na^+/H^+ exchanger activity in parental DU 145 cells, in NHE1-knockout cells (NHE1-KO), and in knockout cells that had NHE1 reintroduced (NHE1-RI). […] The intracellular pH was recorded in cells transiently acidified using ammonium chloride addition. […] (E) Bar graph showing a summary of the initial rate of recovery; this was measured relative to the wild-type protein and recorded as delta pH/s. n ≥ 6, mean +/− SE. […] The activity of NHE1 was calculated from the changes over the first 20 s of recovery from the acid load, and was expressed as ΔpH/s. […]
Intracellular pH was measured using 2′,7-bis(2-carboxyethyl)-5(6) carboxyfluorescein acetoxymethyl ester (BCECF-AM), in a similar manner to that described in [29]. […]

uPA = uPA (Homo sapiens, UniProt P00749); experiment: uPA activity assay; type: biochemical
Experimental: We next tested the efficacy of a new family of NHE inhibitors on the activity of the NHE1 protein in DU 145 cells. In order to do this, we used a double-pulse assay, in which there were two consecutive ammonium-chloride-induced acidifications. The rate of recovery in the second pulse in the presence of the inhibitor was measured relative to that of the first pulse in the absence of the inhibitor. In control experiments, we observed that the second pulse, in the absence of the inhibitor, was equivalent to that of the first (Figure 3A). […] A summary of the results is shown in Figure 3C–G, [32] and a summary of the IC50 values can be found in Table 1. The various compounds tested had differing potencies towards NHE1 activity. […] Figure 3C–G also show the inhibition of uPA activity for each compound on the same plots (red line), assayed as indicated in the Section 4. […] (Table 1).
Synthesis of NHE1/uPA inhibitors was as described previously, as was the determination of uPA activity, where each compound was described as the number in parentheses: BB2-50F (5), BB2-30F (26), AA1-111 (29), and AA1-135 (30).

NHE1 [5] = target: T1, NHE1; experiment: Na+/H+ exchanger activity, double ammonium chloride pulse assay in DU 145 cells; type: cell-based
Experimental: We next tested the efficacy of a new family of NHE inhibitors on the activity of the NHE1 protein in DU 145 cells. In order to do this, we used a double-pulse assay, in which there were two consecutive ammonium-chloride-induced acidifications. The rate of recovery in the second pulse in the presence of the inhibitor was measured relative to that of the first pulse in the absence of the inhibitor. In control experiments, we observed that the second pulse, in the absence of the inhibitor, was equivalent to that of the first (Figure 3A). […] A summary of the results is shown in Figure 3C–G, [32] and a summary of the IC50 values can be found in Table 1. […]
Figure 3 Characterization of the effects of pharmacological compounds on the activity of the Na^+/H^+ exchanger using the double-pulse assay. Na^+/H^+ exchanger activity was determined as described in Figure 2 and in the Section 4, using a dual ammonium chloride pulse assay. The rate of recovery in the first pulse, in the absence of the drug, was measured. […]
Intracellular pH was measured using 2′,7-bis(2-carboxyethyl)-5(6) carboxyfluorescein acetoxymethyl ester (BCECF-AM), in a similar manner to that described in [29]. […] Cells were loaded with BCECF and fluorescence was measured using a PTI Deltascan spectrofluorometer. NHE1 activity was measured after inducing an acute acid load using ammonium chloride. […]

T1 sequence (P19634 whole entry): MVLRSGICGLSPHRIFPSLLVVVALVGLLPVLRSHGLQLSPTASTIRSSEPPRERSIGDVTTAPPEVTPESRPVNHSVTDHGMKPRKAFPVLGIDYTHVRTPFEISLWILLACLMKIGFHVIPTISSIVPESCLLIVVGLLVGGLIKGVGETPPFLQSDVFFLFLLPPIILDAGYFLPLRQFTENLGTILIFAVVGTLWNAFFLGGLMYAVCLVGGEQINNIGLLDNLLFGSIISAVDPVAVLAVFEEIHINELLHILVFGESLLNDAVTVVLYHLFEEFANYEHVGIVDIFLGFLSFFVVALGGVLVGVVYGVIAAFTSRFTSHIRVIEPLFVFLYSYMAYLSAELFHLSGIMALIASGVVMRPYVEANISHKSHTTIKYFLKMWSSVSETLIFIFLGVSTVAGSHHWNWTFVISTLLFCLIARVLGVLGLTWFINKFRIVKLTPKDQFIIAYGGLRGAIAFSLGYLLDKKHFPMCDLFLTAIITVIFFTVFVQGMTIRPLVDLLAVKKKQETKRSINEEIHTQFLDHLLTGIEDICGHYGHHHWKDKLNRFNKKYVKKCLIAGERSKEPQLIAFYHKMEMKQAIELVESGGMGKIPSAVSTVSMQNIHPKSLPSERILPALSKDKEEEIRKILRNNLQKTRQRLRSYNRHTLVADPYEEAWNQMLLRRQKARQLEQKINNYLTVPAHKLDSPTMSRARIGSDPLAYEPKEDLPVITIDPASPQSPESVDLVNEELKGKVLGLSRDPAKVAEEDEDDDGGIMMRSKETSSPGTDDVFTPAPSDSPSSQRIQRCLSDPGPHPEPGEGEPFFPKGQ

NHE1 activity (initial rate of recovery) (NHE1 [4]; RI cells (NHE1 reintroduced into KO DU 145)) | NHE1 activity (initial rate of recovery) (NHE1 [4]; wild-type DU 145 cells) | uPA inhibition (in words) (uPA; 2 µM) | NHE1 inhibition (in words) (NHE1 [5]; 2 µM) | IC50 (NHE1 [5]; DU 145 cells, double-pulse assay, read-out: Potency (IC50) towards NHE1) [nM] | Structure (SMILES) | inhibition of NHE1 (in words) (NHE1 [1]) | tumor growth (LNCaP) | tumor growth (DU 145) | cell migration (DU 145 cells [2]; 2 µM, DU 145) | cell migration (gap closure) (DU 145 cells [2]; 10 µM, 24 h, wild-type DU 145) | migration (gap closure) (DU 145 cells [2]; any of the groups, including wild-type and RI DU 145 cells) | anchorage-dependent colony formation (DU 145 cells [3]) | inhibition of uPA activity (in words) (uPA)
 |  |  |  |  | N=C(N)NC(=O)c1nc(Cl)c(N)nc1N [Amiloride] | low μM inhibitor | inhibit | inhibit |  |  |  |  | 
eliminated | eliminated | minimal inhibition of uPA | complete NHE1 inhibition | 450 | [H]/N=C(\N)NC(=O)c1cc(S(C)(=O)=O)c(S(C)(=O)=O)cc1C [EMD87580, rimeporide] |  |  |  | lack of effect | only very slight, non-significant effects | did not reduce migration | no effect | no inhibitory activity; also recorded: no effect on uPA

From publication PMC8705693, “Roles of the Na^+/H^+ Exchanger Isoform 1 and Urokinase in Prostate Cancer Cell Migration and Invasion” (International Journal of Molecular Sciences, 2021)
